Test results published in patent US9302999B2, “Substituted triazoles as herbicides” (E. I. DU PONT DE NEMOURS AND COMPANY, priority 2012, dated 2016).

Columns and labels:
Type in all cases: in vivo
[1] = tested on: velvetleaf (Abutilon theophrasti); assay: Test F pre-/postemergence: velvetleaf; conditions: Preemergence
Text: (§1) Seeds of plant species selected from corn (Zea mays), soybean (Glycine max), velvetleaf (Abutilon theophrasti), lambsquarters (Chenopodium album), poinsettia, wild (wild poinsettia, Euphorbia heterophylla), pigweed, palmer (palmer pigweed, Amaranthus palmeri), waterhemp (common waterhemp, Amaranthus rudis), surinam grass (Brachiaria decumbens), crabgrass, Brazil (Brazilian crabgrass, Digitaria horizontalis), panicum, fall (fall panicum Panicum dichotomiflorum), crabgrass, large (large crabgrass, Digitaria sanguinalis), foxtail, giant (giant foxtail, Setaria faberii), foxtail, green (green foxtail Setaria viridis), goosegrass (Eleusine indica), ragweed (common ragweed, Ambrosia elatior), barnyardgrass (Echinochloa crus-galli), sandbur (southern sandbur, Cenchrus echinatus), arrowleaf sida (Sida rhombifolia), ryegrass, Italian (Italian ryegrass, Lolium multiflorum), dayflower, VA (Virginia (VA) dayflower, Commelina virginica), field bindweed (Convolvulus arvensis), cocklebur (common cocklebur, Xanthium strumarium), morningglory (Ipomoea coccinea), nightshade (eastern black nightshade, Solanum ptycanthum), kochia (Kochia scoparia), nutsedge, yellow (yellow nutsedge, Cyperus esculentus), johnsongrass (Sorghum halepense), smartweed (ladysthumb smartweed, Polygonum persicaria), and beggarticks (hairy beggarticks, Bidens pilosa), were planted into a silt loam soil and treated preemergence with test chemicals formulated in a non-phytotoxic solvent mixture which included a surfactant. At the same time, plants selected from these crop and weed species and also pigweed (Amaranthus retroflexus), waterhemp_RES1 (ALS/Triazine resistant common waterhemp, Amaranthus rudis) and waterhemp_RES2 (ALS/HPPD resistant common waterhemp, Amaranthus rudis) were planted in pots containing a planting medium comprising spaghnum peat moss, vermiculite, wetting agent and starter nutrients treated with postemergence applications of some of the test chemicals formulated in the same manner. Plants ranged in height from 2 to 18 cm for postemergence treatments (1- to 4-leaf stage).
(§2) Treated plants and controls were maintained in a greenhouse for 14 to 21 days, after which time all species were compared to controls and visually evaluated. Plant response ratings, summarized in Table E, are based on a scale of 0 to 100 where 0 is no effect and 100 is complete control. A dash (-) response means no test result.

corn (Zea mays) = assay: Test F pre-/postemergence: corn
Summary of the method: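 Seeds were sown in silt loam soil and sprayed preemergence with test chemical in a non-phytotoxic solvent mixture containing surfactant; postemergence treatments went onto plants 2 to 18 cm tall (1- to 4-leaf stage) grown in peat moss/vermiculite medium. After 14 to 21 days in a greenhouse, injury was rated visually against controls, 0 (no effect) to 100 (complete control).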

[2] = tested on: galium (catchweed bedstraw, Galium aparine); assay: Test D pre-/postemergence: galium; conditions: Postemergence; for Plant response rating, Galium: 16 g ai/ha, scale 0 to 100
Summary of the method: (§3)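 We sprayed chemicals in a surfactant-containing solvent onto silt loam at planting (preemergence) and onto 1- to 4-leaf seedlings (postemergence). Fourteen to 21 days later, each species was rated visually from 0 to 100 relative to controls.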

[3] = tested on: cocklebur (common cocklebur, Xanthium strumarium); assay: Test F pre-/postemergence: cocklebur; conditions: Preemergence
Text: as §1, §2

[4] = tested on: Russian thistle (Salsola iberica); assay: Test D pre-/postemergence: Russian thistle; conditions: Postemergence; for Plant response rating, Russian Thistle: 16 g ai/ha, scale 0 to 100
Summary of the method: as §3

[5] = tested on: field bindweed (Convolvulus arvensis); assay: Test F pre-/postemergence: field bindweed
Text: as §1, §2

[6] = tested on: bluegrass (annual bluegrass, Poa annua); assay: Test D pre-/postemergence: bluegrass
Summary of the method: as §3

[7] = 16 g ai/ha, scale 0 to 100, 0 no effect, 100 complete control
[8] = 31 g ai/ha, scale 0 to 100, 0 no effect, 100 complete control
[9] = Preemergence, 16 g ai/ha, scale 0 to 100, 0 no effect, 100 complete control
[10] = Preemergence, 31 g ai/ha, scale 0 to 100, 0 no effect, 100 complete control
[11] = Preemergence, 62 g ai/ha, scale 0 to 100
[12] = Preemergence, 125 g ai/ha, scale 0 to 100
[13] = Preemergence, 250 g ai/ha, scale 0 to 100
[14] = 31 g ai/ha, scale 0 to 100 (0 no effect, 100 complete control)
[15] = 62 g ai/ha, scale 0 to 100 (0 no effect, 100 complete control)
[16] = 125 g ai/ha, scale 0 to 100, 0 no effect, 100 complete control
[17] = Postemergence, 31 g ai/ha, scale 0 to 100 (0 no effect, 100 complete control)
[18] = Postemergence, 62 g ai/ha, scale 0 to 100 (0 no effect, 100 complete control)
[19] = Postemergence, 125 g ai/ha, scale 0 to 100, 0 no effect, 100 complete control
[20] = Postemergence, 16 g ai/ha, scale 0 to 100
[21] = Postemergence, 250 g ai/ha, scale 0 to 100
[22] = Postemergence, 31 g ai/ha, scale 0 to 100
[23] = Postemergence, 125 g ai/ha, scale 0 to 100
[24] = Postemergence, 8 g ai/ha, scale 0 to 100
[25] = Postemergence, 62 g ai/ha, scale 0 to 100
[26] = Preemergence, 8 g ai/ha, scale 0 to 100, 0 no effect, 100 complete control

## Cc1nn(-c2ccc(C(F)(F)F)c(F)c2)nc1Oc1ccnc(C(F)(F)F)c1 [Compound 148]
[1]; [7]
  Plant response rating, Velvetleaf: 0
[1]; [8]
  Plant response rating, Velvetleaf: 0
[1]; 125 g ai/ha, scale 0 to 100
  Plant response rating, Velvetleaf: 25
[1]; 250 g ai/ha, scale 0 to 100
  Plant response rating, Velvetleaf: 65
Corn (Zea mays); [9]
  Plant response rating, Corn: 0
Corn (Zea mays); [10]
  Plant response rating, Corn: 0
Corn (Zea mays); [11]
  Plant response rating, Corn: 0
Corn (Zea mays); [12]
  Plant response rating, Corn: 0
Corn (Zea mays); [13]
  Plant response rating, Corn: 5
[2]; [14]
  Plant response rating: Galium: 70
[2]; [15]
  Plant response rating: Galium: 70
[2]; [16]
  Plant response rating: Galium: 75
[2]
  Plant response rating, Galium: 60
[3]; [8]
  Plant response rating, Cocklebur: 0
[3]; 125 g ai/ha, scale 0 to 100
  Plant response rating, Cocklebur: 0
[4]; [14]
  Plant response rating: Russian Thistle: 75
[4]; [15]
  Plant response rating: Russian Thistle: 85
[4]; [16]
  Plant response rating: Russian Thistle: 75
[4]
  Plant response rating, Russian Thistle: 65
[5]; [9]
  Plant response rating, Field Bindweed: 0
[5]; [10]
  Plant response rating, Field Bindweed: 0
[5]; [11]
  Plant response rating, Field Bindweed: 0
[5]; [12]
  Plant response rating, Field Bindweed: 20
[5]; [13]
  Plant response rating, Field Bindweed: 50
[6]; [17]
  Plant response rating: Bluegrass: 15
[6]; [18]
  Plant response rating: Bluegrass: 25
[6]; [19]
  Plant response rating: Bluegrass: 70
[6]; [20]
  Plant response rating, Bluegrass: 5
[6]; [9]
  Plant response rating, Bluegrass: 0
[6]; [10]
  Plant response rating, Bluegrass: 15
[6]; [11]
  Plant response rating, Bluegrass: 60
[6]; [12]
  Plant response rating, Bluegrass: 50

## CCc1nn(-c2ccc(C(F)(F)F)cc2)nc1Cc1ccnc(C(F)(F)F)c1 [Compound 155]
[1]; 125 g ai/ha, scale 0 to 100
  Plant response rating, Velvetleaf: 98
[1]; 250 g ai/ha, scale 0 to 100
  Plant response rating, Velvetleaf: 98
Corn (Zea mays); [11]
  Plant response rating, Corn: 10
Corn (Zea mays); [12]
  Plant response rating, Corn: 15
Corn (Zea mays); [13]
  Plant response rating, Corn: 15
[2]; [14]
  Plant response rating: Galium: 70
[2]; [15]
  Plant response rating: Galium: 70
[2]; [16]
  Plant response rating: Galium: 75
[2]
  Plant response rating, Galium: 65
[3]; 62 g ai/ha, scale 0 to 100
  Plant response rating, Cocklebur: 0
[3]; 125 g ai/ha, scale 0 to 100
  Plant response rating, Cocklebur: 40
[3]; 250 g ai/ha, scale 0 to 100
  Plant response rating, Cocklebur: 40
[4]; [14]
  Plant response rating: Russian Thistle: 80
[4]; [15]
  Plant response rating: Russian Thistle: 85
[4]; [16]
  Plant response rating: Russian Thistle: 85
[4]
  Plant response rating, Russian Thistle: 70
[5]; [11]
  Plant response rating, Field Bindweed: 85
[5]; [12]
  Plant response rating, Field Bindweed: 95
[5]; [13]
  Plant response rating, Field Bindweed: 100
[6]; [17]
  Plant response rating: Bluegrass: 35
[6]; [18]
  Plant response rating: Bluegrass: 75
[6]; [19]
  Plant response rating: Bluegrass: 90
[6]; [20]
  Plant response rating, Bluegrass: 20
[6]; [9]
  Plant response rating, Bluegrass: 15
[6]; [10]
  Plant response rating, Bluegrass: 15
[6]; [11]
  Plant response rating, Bluegrass: 60
[6]; [12]
  Plant response rating, Bluegrass: 85

## CCCc1nn(-c2ccc(F)c(F)c2)nc1Oc1ccnc(C(F)(F)F)c1 [Compound 172]
[1]; [8]
  Plant response rating, Velvetleaf: 0
[1]; 125 g ai/ha, scale 0 to 100
  Plant response rating, Velvetleaf: 80
[1]; 250 g ai/ha, scale 0 to 100
  Plant response rating, Velvetleaf: 100
Corn (Zea mays); [21]
  Plant response rating, Corn: 30
Corn (Zea mays); [22]
  Plant response rating, Corn: 15
Corn (Zea mays); [23]
  Plant response rating, Corn: 20
Corn (Zea mays); [10]
  Plant response rating, Corn: 0
Corn (Zea mays); [12]
  Plant response rating, Corn: 15
Corn (Zea mays); [13]
  Plant response rating, Corn: 15
[3]; 250 g ai/ha, scale 0 to 100
  Plant response rating, Cocklebur: 5
[5]; [21]
  Plant response rating, Field Bindweed: 60
[5]; [22]
  Plant response rating, Field Bindweed: 25
[5]; [23]
  Plant response rating, Field Bindweed: 60
[5]; [10]
  Plant response rating, Field Bindweed: 5
[5]; [12]
  Plant response rating, Field Bindweed: 95
[5]; [13]
  Plant response rating, Field Bindweed: 95

## CCOc1nn(-c2ccc(F)cc2)nc1Cc1ccnc(C(F)(F)F)c1 [Compound 196, 4-[[5-ethoxy-2-(4-fluorophenyl)-2H-1,2,3-triazol-4-yl]methyl]-2-(trifluoromethyl)pyridine]
[1]; 8 g ai/ha, scale 0 to 100, 0 no effect, 100 complete control
  Plant response rating, Velvetleaf: 0
[1]; [7]
  Plant response rating, Velvetleaf: 10
[1]; [8]
  Plant response rating, Velvetleaf: 20
[1]; 125 g ai/ha, scale 0 to 100
  Plant response rating, Velvetleaf: 95
Corn (Zea mays); [24]
  Plant response rating, Corn: 15
Corn (Zea mays); [20]
  Plant response rating, Corn: 15
Corn (Zea mays); [22]
  Plant response rating, Corn: 20
Corn (Zea mays); [25]
  Plant response rating, Corn: 20
Corn (Zea mays); [23]
  Plant response rating, Corn: 25
Corn (Zea mays); [26]
  Plant response rating, Corn: 0
Corn (Zea mays); [9]
  Plant response rating, Corn: 0
Corn (Zea mays); [10]
  Plant response rating, Corn: 0
Corn (Zea mays); [11]
  Plant response rating, Corn: 5
Corn (Zea mays); [12]
  Plant response rating, Corn: 30
[2]; [14]
  Plant response rating: Galium: 85
[2]; [15]
  Plant response rating: Galium: 70
[2]; [16]
  Plant response rating: Galium: 90
[2]
  Plant response rating, Galium: 70
[3]; [8]
  Plant response rating, Cocklebur: 0
[3]; 62 g ai/ha, scale 0 to 100
  Plant response rating, Cocklebur: 0
[3]; 125 g ai/ha, scale 0 to 100
  Plant response rating, Cocklebur: 0
[4]; [14]
  Plant response rating: Russian Thistle: 90
[4]; [15]
  Plant response rating: Russian Thistle: 80
[4]; [16]
  Plant response rating: Russian Thistle: 75
[4]
  Plant response rating, Russian Thistle: 80
[5]; [24]
  Plant response rating, Field Bindweed: 50
[5]; [20]
  Plant response rating, Field Bindweed: 60
[5]; [22]
  Plant response rating, Field Bindweed: 70
[5]; [25]
  Plant response rating, Field Bindweed: 75
[5]; [23]
  Plant response rating, Field Bindweed: 75
[5]; [26]
  Plant response rating, Field Bindweed: 0
[5]; [9]
  Plant response rating, Field Bindweed: 0
[5]; [10]
  Plant response rating, Field Bindweed: 25
[5]; [12]
  Plant response rating, Field Bindweed: 65
[6]; [17]
  Plant response rating: Bluegrass: 70
[6]; [18]
  Plant response rating: Bluegrass: 75
[6]; [19]
  Plant response rating: Bluegrass: 80
[6]; [20]
  Plant response rating, Bluegrass: 60
[6]; [9]
  Plant response rating, Bluegrass: 5
[6]; [10]
  Plant response rating, Bluegrass: 35
[6]; [11]
  Plant response rating, Bluegrass: 75
[6]; [12]
  Plant response rating, Bluegrass: 100
